Data published in patent publication US20180243317A1, “COMPOSITIONS COMPRISING A PI3K INHIBITOR AND AN HDAC INHIBITOR” (KARUS THERAPEUTICS LTD, priority 2015, published 2018).

Columns and labels:
Recombinant human HDAC6 = target: T1, Recombinant human HDAC6 (Homo sapiens, UniProt Q9UBN7); assay: HDAC biochemical assay with acetylated AMC-labeled peptide substrate; settings: read-out: IC50 HDAC 6
T1 construct: GST (N); made in house; host or cells: Sf9 insect cells (baculovirus)
T1 sequence (Q9UBN7 1-1215): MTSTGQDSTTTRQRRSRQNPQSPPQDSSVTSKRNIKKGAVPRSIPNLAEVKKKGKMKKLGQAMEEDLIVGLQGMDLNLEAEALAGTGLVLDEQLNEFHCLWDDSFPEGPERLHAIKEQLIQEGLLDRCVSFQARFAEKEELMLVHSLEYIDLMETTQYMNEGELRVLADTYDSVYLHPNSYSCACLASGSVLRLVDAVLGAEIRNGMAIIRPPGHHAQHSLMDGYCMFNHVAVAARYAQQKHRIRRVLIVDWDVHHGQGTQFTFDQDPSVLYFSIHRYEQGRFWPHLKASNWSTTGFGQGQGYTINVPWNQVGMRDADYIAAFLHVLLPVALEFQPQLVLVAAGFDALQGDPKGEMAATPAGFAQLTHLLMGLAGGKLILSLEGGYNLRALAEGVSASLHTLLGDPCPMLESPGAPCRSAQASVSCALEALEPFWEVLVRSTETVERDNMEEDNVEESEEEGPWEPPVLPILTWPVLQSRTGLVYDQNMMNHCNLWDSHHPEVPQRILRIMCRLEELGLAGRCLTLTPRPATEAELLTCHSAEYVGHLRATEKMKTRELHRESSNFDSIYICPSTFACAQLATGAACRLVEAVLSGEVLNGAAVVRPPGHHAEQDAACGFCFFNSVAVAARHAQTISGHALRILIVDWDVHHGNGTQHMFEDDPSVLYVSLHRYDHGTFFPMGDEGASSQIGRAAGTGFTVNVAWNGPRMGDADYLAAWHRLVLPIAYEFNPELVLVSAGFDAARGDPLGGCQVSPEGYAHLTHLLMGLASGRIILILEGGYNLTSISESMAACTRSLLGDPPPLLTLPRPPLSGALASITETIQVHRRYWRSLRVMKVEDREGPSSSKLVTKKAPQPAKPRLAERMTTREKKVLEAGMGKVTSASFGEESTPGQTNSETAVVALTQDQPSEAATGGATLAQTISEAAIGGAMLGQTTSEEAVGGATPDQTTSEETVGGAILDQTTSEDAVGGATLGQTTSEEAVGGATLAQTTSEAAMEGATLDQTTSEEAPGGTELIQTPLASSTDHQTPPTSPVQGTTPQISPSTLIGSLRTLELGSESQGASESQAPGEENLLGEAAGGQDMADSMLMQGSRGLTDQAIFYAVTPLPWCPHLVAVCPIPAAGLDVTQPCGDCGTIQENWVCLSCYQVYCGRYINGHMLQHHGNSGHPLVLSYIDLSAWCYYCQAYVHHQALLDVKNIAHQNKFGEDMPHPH
Description: (§1) Activity against all zinc-dependent HDACs 1 to 11 was assessed by using an acetylated AMC-labeled peptide substrate. The substrate RHKKAc was used for all class I and IIb HDACs; for HDAC8, the substrate used was RHKAcKAc. […] All assays were based on the AMC-labeled substrate and developer combination.
(§2) The protocol involved a two-step reaction: first, the substrate with the acetylated lysine side chain is incubated with a sample containing HDAC activity, to produce the deacetylated products, which are then digested in the second step by the addition of developer to produce the fluorescent signal proportional to the amount of deacetylated substrates.
Human HDAC5 (GenBank Accession No. NM_005474), full length with N-terminal GST tag, MW=150 kDa, expressed in baculovirus expression system. Recombinant human HDAC6 (GenBank Accession No. BC069243), full length, MW=180 kDa, was expressed by baculovirus in Sf9 insect cells using an N-terminal GST tag.
(§3) Before use, 1 mg/mL BSA and DMSO are added.
(§4) Incubate for 2 hours at 30° C.
(§5) Fluorescence background signal is then subtracted from compound data signal.
(§6) Stage 1: Deacetylation of substrate by incubation of HDAC enzymes with compounds
(§7) Stage 2: Development by addition of Developer to digest the deacetylated substrate, and generate the fluorescent color; Detection: 360/460 Ex/Em

Human HDAC1 = target: T2, Human HDAC1 (Homo sapiens, UniProt Q13547); assay: as above; settings: read-out: IC50 HDAC 1
T2 construct: full length with C-terminal His-tag and C-terminal FLAG-tag; His-tag (C); FLAG-tag (C); made in house; host or cells: baculovirus expression system
T2 sequence (Q13547 whole entry): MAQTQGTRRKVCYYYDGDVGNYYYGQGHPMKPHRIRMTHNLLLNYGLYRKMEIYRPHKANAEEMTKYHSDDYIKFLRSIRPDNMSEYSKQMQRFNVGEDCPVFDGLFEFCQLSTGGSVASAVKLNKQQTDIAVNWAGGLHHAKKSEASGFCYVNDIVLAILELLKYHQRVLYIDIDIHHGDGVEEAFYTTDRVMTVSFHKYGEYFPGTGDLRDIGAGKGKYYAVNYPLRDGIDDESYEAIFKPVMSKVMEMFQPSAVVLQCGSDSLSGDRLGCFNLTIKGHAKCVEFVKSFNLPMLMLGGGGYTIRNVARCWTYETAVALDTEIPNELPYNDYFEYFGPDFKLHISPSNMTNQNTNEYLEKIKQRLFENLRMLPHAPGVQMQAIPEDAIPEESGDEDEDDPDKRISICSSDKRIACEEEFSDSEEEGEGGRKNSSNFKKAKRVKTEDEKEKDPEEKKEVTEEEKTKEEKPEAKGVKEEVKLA
Description: as §1, §2
Human HDAC1 (GenBank Accession No. NM_004964), full length with C-terminal His-tag and C-terminal FLAG-tag, MW=56 kDa, expressed in baculovirus expression system.
as §3, §4, §5, §6, §7

Structure (SMILES)	IC50 (Recombinant human HDAC6) [nM]	IC50 (Human HDAC1) [nM]
COc1ccc(N(Cc2ccc(C(=O)NO)cc2)c2ccc(N3CCOCC3)cn2)nc1 [Example AA, N-Hydroxy-4-(((5-methoxypyridin-2-yl)(5-morpholinopyridin-2-yl)amino)methyl)benzamide]	≤ 500	1000 to 10000
O=C(NO)c1ccc(CN(c2ccccn2)c2nccc3sccc23)cc1 [Example BB, N-Hydroxy-4-((pyridin-2-yl(thieno[3,2-c]pyridin-4-yl)amino)methyl)benzamide]	≤ 500	1000 to 10000
Cc1cccc(N(Cc2ccc(C(=O)NO)cc2)c2ccc(N3CCOCC3)cn2)n1 [Example CC, N-Hydroxy-4-(((6-methylpyridin-2-yl)(5-morpholinopyridin-2-yl)amino)methyl)benzamide]	500 to 1000	> 10000
O=C(NO)c1ccc(CN(c2ccncn2)c2cnccn2)cc1 [Example DD, N-Hydroxy-4-{[(pyrazin-2-yl)(pyrimidin-4-yl)amino]methyl}benzamide]	≤ 500	1000 to 10000
O=C(NO)c1ccc(CN(c2ccncn2)c2cnccn2)c(F)c1 [Example EE]	≤ 500	1000 to 10000
O=C(NO)c1ccc(CN(c2ccncn2)c2cnccn2)nc1 [Example FF, N-Hydroxy-6-{[(pyrazin-2-yl)(pyrimidin-4-yl)amino]methyl}pyridine-3-carboxamide]	≤ 500	> 10000
Cc1nnc(N(Cc2ccc(C(=O)NO)cc2)c2ccccn2)s1 [Example H, N-Hydroxy-4-(((5-methyl-1,3,4-thiadiazol-2-yl)(pyridin-2-yl)amino)methyl)benzamide]	≤ 500	> 10000
O=C(NO)c1ccc(CN(c2cnccn2)c2cnccn2)c(F)c1 [Example HH, 4-{[Bis(pyrazin-2-yl)amino]methyl}-3-fluoro-N-hydroxybenzamide]	≤ 500	1000 to 10000

The next lines start with the values.

IC50 (Recombinant human HDAC6) [nM]	IC50 (Human HDAC1) [nM]	Structure (SMILES)
≤ 500	1000 to 10000	O=C(NO)c1ccc(CN(c2ccccn2)c2nc3ccccc3o2)cc1 [Example I, 4-((Benzo[d]oxazol-2-yl(pyridin-2-yl)amino)methyl)-N-hydroxybenzamide]
≤ 500	1000 to 10000	O=C(NO)c1ccc(CN(c2cnccn2)c2cnccn2)nc1 [Example II, 6-{[Bis(pyrazin-2-yl)amino]methyl}-N-hydroxypyridine-3-carboxamide]
≤ 500	> 10000	Cn1c(N(Cc2ccc(C(=O)NO)cc2)c2ccccn2)nc2ccccc21 [Example J, N-Hydroxy-4-(((1-methyl-1H-benzo[d]imidazol-2-yl)(pyridin-2-yl)amino)methyl)benzamide]
≤ 500	1000 to 10000	COc1cccnc1N(Cc1ccc(C(=O)NO)cc1)c1cnccn1 [Example JJ, N-Hydroxy-4-{[(3-methoxypyridin-2-yl)(pyrazin-2-yl)amino]methyl}benzamide]
≤ 500	> 10000	O=C(NO)c1ccc(CN(c2ccccn2)c2ncns2)cc1 [Example K, N-Hydroxy-4-((pyridin-2-yl(1,2,4-thiadiazol-5-yl)amino)methyl)benzamide]
≤ 500	1000 to 10000	COc1cccnc1N(Cc1ccc(C(=O)NO)cc1F)c1cnccn1 [Example KK, 3-Fluoro-N-hydroxy-4-{[(3-methoxypyridin-2-yl)(pyrazin-2-yl)amino]methyl}benzamide]
≤ 500	> 10000	O=C(NO)c1ccc(CN(c2ccc(F)cn2)c2cnccn2)cc1 [Example L, 4-(((5-Fluoropyridin-2-yl)(pyrazin-2-yl)amino)methyl)-N-hydroxybenzamide]
≤ 500	> 10000	COc1cccnc1N(Cc1ccc(C(=O)NO)cn1)c1cnccn1 [Example LL, N-Hydroxy-6-{[(3-methoxypyridin-2-yl)(pyrazin-2-yl)amino]methyl}pyridine-3-carboxamide]
≤ 500		O=C(NO)c1ccc(CN(c2ccccn2)c2nc3ccccc3s2)cc1 [Example V, 4-((Benzo[d]thiazol-2-yl(pyridin-2-yl)amino)methyl)-N-hydroxybenzamide]
